According to patent publication US11865125B2, “APKC inhibitors and methods of treating a neurodegenerative disease or disorder” (UNIVERSITY OF SOUTH FLORIDA, priority 2016, dated 2024):
Entries after “also recorded” stand apart in the source; their conditions may differ.

Legend:
70 kDa PKC-λ/ι = target: T1, 70 kDa PKC-λ/ι (Mus musculus, UniProt Q62074); experiment: brain aPKC (PKC-λ/ι) phosphorylation/activity in mice; assay type: in vivo
T1 construct: insulin-sensitive 70 kDa PKC-λ/ι in brains of Het-MλKO mice; from tissue; host or cells: mouse brain homogenate
T1 sequence (Q62074 1-595): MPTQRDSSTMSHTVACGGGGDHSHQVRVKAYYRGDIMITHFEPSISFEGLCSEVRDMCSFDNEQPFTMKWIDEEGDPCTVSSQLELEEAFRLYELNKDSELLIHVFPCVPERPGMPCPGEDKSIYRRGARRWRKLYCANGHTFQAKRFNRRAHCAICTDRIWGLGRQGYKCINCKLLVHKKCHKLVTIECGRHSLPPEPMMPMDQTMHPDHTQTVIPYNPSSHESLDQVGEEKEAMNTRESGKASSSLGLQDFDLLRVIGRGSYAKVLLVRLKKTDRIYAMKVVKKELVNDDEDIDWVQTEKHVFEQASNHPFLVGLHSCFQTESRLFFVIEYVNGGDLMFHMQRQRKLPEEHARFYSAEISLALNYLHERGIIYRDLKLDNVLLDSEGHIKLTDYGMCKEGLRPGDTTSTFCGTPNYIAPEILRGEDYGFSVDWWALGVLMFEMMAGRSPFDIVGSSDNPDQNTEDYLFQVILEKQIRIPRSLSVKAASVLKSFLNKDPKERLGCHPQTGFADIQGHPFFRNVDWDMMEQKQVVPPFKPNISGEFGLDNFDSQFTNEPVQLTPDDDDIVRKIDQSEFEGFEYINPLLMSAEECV
Excerpt: (§1) Mouse Studies. Brain samples were obtained from normal and insulin-resistant mice and monkeys used previously, and includes mice originally used in studies of insulin signaling and resistance in liver: (a) 4-6 month old C57Bl/6 mice used in studies of high-fat-feeding [USF Vivarium] [6]; 4-6 month-old male C57Bl/6 ob/ob and lean ob+ mice (Jackson Labs, Bar Harbor, Maine); and (c) 10-12 month-old C57Bl/6 Het-MλKO mice [USF Vivarium] [8]. […] Where indicated normal mice were given a single SC injection of saline or saline containing 1.5 mg/kg ICAPP to follow time-related alterations in brain signaling factors. Where indicated, mice were treated intraperitoneally (IP) with insulin (1 U/kg body weight) or vehicle 15-min before euthanization by administration of Xylazine/Ketamine, followed by whole body perfusion with phosphate-buffered saline and rapid removal of brain and other tissues.
(§2) Tissue Preparations. As described, mouse brains were hemisected sagittally, and one-half was frozen in liquid N2, stored at −80° C., and samples thereof were homogenized in buffer containing 0.25M sucrose, 20 mM Tris/HCl (pH, 7.5), 2 mmol/l EGTA, 2 mM EDTA, 1 mM phenlysulfonoylfluoride (PMSF), 20 μg/ml leupeptin, 10 μg/ml aprotinin, 2 mM Na4P2O7, 2 mM Na3VO4, 2 mM NaF, and 1 μM microcystin, and then supplemented with 1% TritonX-100, 0.6% Nonidet and 150 mM NaCl.
(§3) Western Analyses. As described, Western analyses were conducted with rabbit antisera or mouse monoclonal antibodies (mMab), using: anti-aPKC (Santa Cruz Biotechnologies, Santa Cruz, CA); anti-phospho-threonine-560/555-PKC-ζ/λ/ι (Invitrogen, Carlsbad, CA); anti-p-serine-256-FoxO1 and anti-FoxO1 (Abnova, Walnut, CA); anti-Akt (mMab), anti-phospho-serine-473-Akt, anti-phospho-serine-9-GSK3P anti-GSK313, anti-phospho-serine-253-FoxO3a, anti-FoxO3a, anti-phospho-serine-256-FoxO1, anti-phospho-serine-193-FoxO4; anti-FoxO1, anti-phospho-serine-2448-mTOR, anti-mTOR, anti-β-amyloid (anti-5-10 kDa-Aβ1-40/42) and anti-amyloid precursor protein (anti-120 kDa-APP) (Cell Signaling Technologies, Danvers, MA); and anti-phospho-serine-202-tau, anti-phospho-threonine-231-tau (Gene Tex, Irvine, CA). Samples from experimental groups were compared on the same blots, and routinely checked with loading controls. Note that: insulin-sensitive 70 kDa aPKC is largely PKC-ζ in mouse brain and orthologous PKC-ι (98% aa homology) in monkey and other primate brains; brain PKC-ζ exists largely as a 50 kDa moiety that, lacking a regulatory domain, is constitutively-active and unresponsive to insulin.
(§4) Where indicated, mice were randomly treated with insulin (1 unit/kg/bw i.p.) 15 min before being euthanized by administration of xylazine/ketamine, followed by whole-body perfusion with PBS and rapid removal of brain and other tissues.

Aβ1-40/42 = experiment: brain Aβ1-40/42 peptide levels in mice; assay type: in vivo, mouse
Excerpt: as §1, §2, §3, §4

[1] = serum insulin levels / hyperinsulinemia in insulin-resistant mice; assay type: in vivo, mouse; conditions: Het-MλKO mice
Excerpt: as §1, §4

Akt [2] = experiment: Akt activity in LA1-5s neuroblastoma cells; assay type: cell-based, human; conditions: LA1-5s cells, 200 nM insulin
Protocol: Relative bar values in panel a are mean±SEM of 6 determinations. Asterisks: *, P<0.05; **, P<0.01; ***, P<0.001 (ANOVA). Values in panel b are means of 2-4 determinations.
Shown here are Mean±SEM (N=4) values relative to the mean initial basal or insulin-stimulated level of indicated immunoreactive protein/peptide. Asterisks: *, P<0.05; **, P<0.01; ***, P<0.001 (ANOVA).
as §3

[3] = tested on: Akt substrates FOXO1, FOXO3a, GSK3β, and mTOR; experiment: phosphorylation of Akt substrates in mouse brain; assay type: in vivo; conditions: Het-MλKO mice, s.c. once daily for 8 days (ICAPP 0.4 mg/kg, ATM 60 mg/kg)
Excerpt: as §1, §2
Western Analyses. […]

Akt [4] = experiment: brain Akt phosphorylation/activity in mice; assay type: in vivo, mouse
Excerpt: as §1, §2, §3, §4

[5] = Het-MλKO mice, s.c. once daily for 8 days (ICAPP 0.4 mg/kg, ATM 60 mg/kg)
[6] = Het-MλKO mice, s.c. once daily for 8 days (ICAPP 0.4 mg/kg, ATM 60 mg/kg), insulin 1 U/kg i.p. 15 min
[7] = normal mice, single s.c. dose of ICAPP 1.5 mg/kg, insulin 1 U/kg i.p. 15 min before killing

**Q.** With NC(=O)c1ncn([C@@H]2C[C@H](COP(=O)(O)O)[C@@H](O)[C@H]2O)c1N [ICAPP] as the compound, how does the “resting/basal brain aPKC (PKC-λ/ι) activity” value (70 kDa PKC-λ/ι; [5]) read?
**A.** diminished; also recorded: reductions of resting/basal activities of brain Akt and aPKC, comparable to those seen with ATM treatment

**Q.** And the “acute insulin activation of brain aPKC (PKC-λ/ι)” value (70 kDa PKC-λ/ι; [6])?
**A.** blocked the ability of insulin to activate PKC-λ/ι; also recorded: abrogated

**Q.** What about the “insulin-dependent brain PKC-λ/ι (aPKC) activity” value (70 kDa PKC-λ/ι; [7]) of the same compound?
**A.** time-related, well-correlated decreases; also recorded: blocked acute effects of insulin

**Q.** What about the “resting/basal brain Aβ1-40/42 peptide levels” value (Aβ1-40/42; [5]) of the same compound?
**A.** returned to normal

**Q.** What about the “acute insulin-induced increase in brain Aβ1-40/42 levels” value (Aβ1-40/42; [6]) of the same compound?
**A.** comparable loss in the ability of insulin to acutely increase Aβ1-40/42 levels; also recorded: abrogated

**Q.** And the “insulin-dependent brain Aβ1-40/42 peptide levels” value (Aβ1-40/42; [7])?
**A.** time-related, well-correlated decreases; also recorded: blocked acute effects of insulin

**Q.** What about the hyperinsulinemia [1] of the same compound?
**A.** hyperinsulinemia was corrected; also recorded: fully reversed

**Q.** And the “effect on stimulatory effects of insulin on Akt activity” value (Akt [2])?
**A.** without altering

**Q.** And the “resting/basal phosphorylation of Akt substrates in brain” value [3]?
**A.** diminished

**Q.** What about the “acute insulin-stimulated phosphorylation of Akt substrates in brain” value ([3]; insulin 1 U/kg i.p. 15 min) of the same compound?
**A.** restored ability of insulin; also recorded: fully able

**Q.** What about the “resting/basal brain Akt activity” value (Akt [4]; [5]) of the same compound?
**A.** diminished; also recorded: reductions of resting/basal activities of brain Akt and aPKC, comparable to those seen with ATM treatment

**Q.** What about the “acute insulin activation of brain Akt” value (Akt [4]; [6]) of the same compound?
**A.** restored ability of insulin to acutely activate Akt; also recorded: insulin was fully able to fully activate Akt

**Q.** And the “insulin-stimulated increases in brain Akt activity” value (Akt [4]; [7])?
**A.** without altering; also recorded: without inhibiting insulin effects on Akt
